Results taken from patent US20240401058A1, “METHOD OF REGULATING PULMONARY ARTERY VASCULAR REMODELING” (THE TRUSTEES OF INDIANA UNIVERSITY, priority 2021, published 2024).

Columns and labels:
Assay type in all cases: cell-based, human
[1] = tested on: pSPHK2 in nuclear fractions of hPASMC; assay: Nuclear pSPHK2 in hPASMC after EMAP II treatment (immunoblot of nuclear fractions, immunofluorescence); conditions: inhibitor pretreatment, EMAP II 150 minutes
Description: Primary human pulmonary artery smooth muscle cells (hPASMC) purchased from Lonza (Walkersville, MD) were cultured in complete growth medium containing smooth muscle growth media-2 (SmGM-2) with 10% FBS and growth factors provided as a kit by the supplier (Lonza, (Walkersville, MD). Cells were cultured in a humidified atmosphere with 5% CO2 at 37° C. For all studies, passages 5-10 were used for hPASMCs. For treatment studies, subconfluent cells plated in multi-well plates were serum starved and if required, pretreated with inhibitors before stimulation with 2 μg/mL recombinant EMAP II. All the controls were handled similar to the test samples. Cells were treated with EMAP II or vehicle, cells were rinsed at the desired time point, and lysis buffer was applied.
After appropriate treatments, protein lysates were prepared by using RIPA buffer (for cells) or home-made lysis buffer (tissue) supplemented with phosphatase and protease inhibitors (Thermo Fisher Scientific). Alpha-tubulin or Vinculin was used as a loading control. For nuclear and cytoplasmic fractionation, NE-PER kit from Thermo Fischer Scientific was used. Western blots were performed according to standard methods and quantified using densitometry using Image Studio Lite software from LI-COR Biosciences. […]

nuclear S1P = assay: ELISA for S1P quantification in nuclear fractions of hPASMC; conditions: inhibitor pretreatment, EMAP II 15 or 150 minutes
Description: Equal number of hPASMC cells (15000/[…]) were plated and serum starved for overnight. Cells were pretreated with inhibitors if needed and stimulated for in a series of time points and collected the cells. Cells were pelleted out and washed with PBS. After the extraction of nuclear proteins, protein concentration was measured. S1P levels were measured using S1P ELISA kit (MyBioSource, MBS069092) following manufacturer's instructions. S1P levels were normalized against protein levels.

HDAC = HDAC assay in nuclear fractions of hPASMC; conditions: inhibitor pretreatment, EMAP II 150 minutes
Description: Equal number of hPASMC cells (15000/[…]) were plated and serum starved for overnight. Cells were pretreated with inhibitors and stimulated for the desired time points and collected. Cells were pelleted out and washed with PBS. After the extraction of nuclear proteins, protein concentration was measured. HDAC levels were measured using HDAC activity flurometric kit (Abcam, ab156064) following manufacturer's instructions. Free unbound HDAC levels were normalized against protein levels.

hPASMC = assay: Cell proliferation rate in hPASMC following EMAP II treatment; conditions: inhibitor pretreatment, EMAP II 24 hours
Description: Cells were treated with EMAP II or vehicle, cells were rinsed at the desired time point, and lysis buffer was applied.

Ac-H3K9 = assay: CUT&RUN with acetylated H3K9 antibody in hPASMC; conditions: for EMAP II promoted hyperacetylation of H3K9 (Ac-H3K9 peaks): EMAP II 2-3 hours
Description: Cleavage Under Targets and Release Using Nuclease (CUT&RUN) was performed with hPASMC using CUTANA® protocol v1.6. For each condition, nuclei from two biological replicates were extracted by incubating cells on ice for 10 min in Nuclei Extraction buffer (NE: 20 mM HEPES-KOH, pH 7.9; 10 mM KCl; 0.1% Triton X-100; 20% Glycerol; 0.5 mM spermidine; 1× complete protease inhibitor (GoldBio), collecting by centrifugation (600 g, 3 min, 4° C.), discarding the supernatant, and resuspending at [100 μl/500K nuclei] sample in NE buffer. For each target 500K nuclei were immobilized onto Concanavalin-A beads (EpiCypher #21-1401) and incubated overnight (4° C. with gentle rocking) with 0.5 μg of antibody IgG (negative control), trimethylated H3K4 (positive control), Ac-H3K9 (all validated to SNAP-ChIP nucleosome standards). CUT&RUN enriched DNA was purified and used to prepare sequencing libraries with the Ultra II DNA Library Prep kit (New England Biolabs #E7645S). Libraries were sequenced on the Illumina NextSeq 550, obtaining ˜8 million paired end reads on average. The CUT&RUN paired reads were used for quality control using FASTQ Groomer (Galaxy Version 1.1.5) and paired ends were aligned against the GRCh38/hg38 reference genome assembly for human using bowtie2 (Galaxy Version 2.4.2+galaxy0). After quality-based filtering with SAM or BAM tools (Galaxy Version 1.8+galaxy1), MACS2 (Galaxy Version 2.1.1.20160309.6) was applied for CUT&RUN peak calling of Ac-H3K9 against the IgG control with genome size of 2.7e9 and then, DiffBind (Galaxy Version 2.10.0) was used to analyze the differential binding sites between the control and rEMAP II treated samples.

iPAH: PASMCs = assay: Cell proliferation rate of iPAH: PASMCs; conditions: iSPHK2 pretreatment 24 hours
Description: All studies involving human lung tissues and cells were conducted according to the Institutional review board of Indiana University School of Medicine. Deidentified archived tissues and pulmonary arterial smooth muscle cells (PASMCs) obtained from the Pulmonary Hypertension Breakthrough Initiative (PHBI) biorepository from patients with Idiopathic Pulmonary Arterial Hypertension (iPAH: Group 1 PH) at time of lung transplantation and patients without PH that were failed donor lungs (FDL).
Primary human PASMCs (hPASMCs), pulmonary microvascular endothelial cells (hPMVECs) purchased from Lonza (Walkersville, MD) and iPAH: PASMCs were cultured in complete growth medium or conditioned media in a humidified atmosphere or 1% O2 with 5% CO2 at 37° C. For all studies, passages 5-10 were used for hPASMCs and hPMVECs.

| Compound | EMAP II induced nuclear activation of SPHK2 (nuclear pSPHK2/lamin B) [1] | EMAP II induced nuclear activation of SPHK2 (nuclear pSPHK2/lamin B) ([1]; listed as iSPHK2) | EMAP II generated nuclear S1P (nuclear S1P) | EMAP II generated nuclear S1P (nuclear S1P; listed as iSPHK2) | HDAC activity (HDAC) | HDAC activity (HDAC; listed as iSPHK2) | HDAC activity (HDAC; listed as iSPHK2 inhibitor) | EMAP II mediated cell proliferation (hPASMC) | EMAP II mediated cell proliferation (hPASMC; listed as iSPHK2) | differentially acetylated sites by EMAPII that are altered by iSPHK2 pretreatment (Ac-H3K9) [sites] | differentially acetylated upstream sites by EMAPII that are also altered by iSPHK2 pretreatment (Ac-H3K9) [sites] | EMAP II promoted hyperacetylation of H3K9 (Ac-H3K9 peaks) (Ac-H3K9; inhibitor pretreatment) | EMAP II promoted hyperacetylation of H3K9 (Ac-H3K9 peaks) (Ac-H3K9; inhibitor pretreatment, listed as iSPHK2) | level of Ac-H3K9 regions in KLF4 (Ac-H3K9; inhibitor pretreatment, EMAPII treated) | proliferation rate (iPAH: PASMCs) |
| --- | --- | --- | --- | --- | --- | --- | --- | --- | --- | --- | --- | --- | --- | --- | --- |
| O=C(NCc1ccncc1)C12CC3CC(C1)CC(c1ccc(Cl)cc1)(C3)C2 [SPHK2 inhibitor, ABC294640] | ablated the EMAP II induced nuclear activation of SPHK2 | ablated the EMAPII induced nuclear activation of SPHK2 | suppressed EMAP II generated nuclear S1P expression | suppressed EMAPII generated nuclear S1P expression | rescued decreased HDAC activity | rescued the loss of HDAC activity | rescued the loss of HDAC activity | blocked EMAPII mediated proliferation | rescued | 5554 | 755 | partially diminished EMAP II promoted hyperacetylation of H3K9 | partially diminished EMAPII promoted hyperacetylation of H3K9 | rescued the level of Ac-H3K9 regions in EMAPII treated cells | restoring regular proliferation rates in iPAH: PASMCs |
| Cc1cc(CS(=O)(=O)c2ccccc2)cc(OCc2ccc(CN3CCCC3CO)cc2)c1 (stereo not shown) [SPHK1 inhibitor, PF643] |  |  |  |  |  |  |  | blocked EMAPII mediated proliferation |  |  |  |  |  |  |  |
